Data: US11192865B2, “Benzosulfonyl compounds” (Vivace Therapeutics, Inc., priority 2017, dated 2021)

Tested on: 8XTBD luciferase reporter
Assay: YAP Reporter Assay
Assay type: cell-based
Details: Homo sapiens, HEK-293T; HEK293T cells stably transfected with 8XTBD luciferase reporter and pRLTK; 24-hr incubation; starting from 3 μM, 1:3 dilution, 10 points; read-out: Firefly Luciferase IC50
Method in brief: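 HEK293T cells stably carrying the 8XTBD firefly luciferase reporter and TK-renilla control received compounds at a 10-point, 1:3 series from 3 μM (final) in quadruplicate. After 24 h at 37° C, Dual-Glo luminescence was read. IC50 and maximal inhibition were reported separately for firefly and renilla signals.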

SMILES	IC50 [µM]
CNS(=O)(=O)c1ccc(Nc2ccc(-c3ccccc3)cc2)c(-c2nnn(C)n2)c1 [Compound 128, N-methyl-3-(2-methyltetrazol-5-yl)-4-(4-phenylanilino) benzenesulfonamide]	1 to 3
CNS(=O)(=O)c1ccc(Nc2cccc(-c3ccccc3)c2)c(-c2nnn(C)n2)c1 [Compound 131, N-methyl-3-(2-methyltetrazol-5-yl)-4-(3-phenylanilino) benzenesulfonamide]	≤ 0.1
CNS(=O)(=O)c1ccc(Nc2ccc(C(F)(F)F)cc2)c(-c2nnn(Cc3ccccc3F)n2)c1 [Compound 137, 3-[2-[(2-Fluorophenyl)methyl]tetrazol-5-yl]-N-methyl-4-[4-(trifluoromethyl)anilino]benzene-sulfonamide]	≤ 0.1
CNS(=O)(=O)c1ccc(Nc2ccc(Cl)c(Cl)c2)c(-c2cn(C)cn2)c1 [Compound 140, 4-(3,4-dichloroanilino)-N-methyl-3-(1-methylimidazol-4-yl)benzenesulfonamide]	≤ 0.1
CNS(=O)(=O)c1ccc(Nc2cccc(SC(F)(F)F)c2)c(-c2cn(C)cn2)c1 [Compound 141, N-methyl-3-(1-methylimidazol-4-yl)-4-[3-(trifluoromethylsulfanyl)anilino] benzenesulfonamide]	≤ 0.1
CNS(=O)(=O)c1ccc(Nc2cc(Cl)cc(Cl)c2)c(-c2cn(C)cn2)c1 [Compound 142, 4-(3,5-dichloroanilino)-N-methyl-3-(1-methylimidazol-4-yl)benzenesulfonamide]	≤ 0.1
CNS(=O)(=O)c1ccc(Nc2ccc(SC(F)(F)F)cc2)c(-c2cn(C)cn2)c1 [Compound 144, N-methyl-3-(1-methylimidazol-4-yl)-4-[4-(trifluoromethylsulfanyl)anilino] benzenesulfonamide]	≤ 0.1
CNS(=O)(=O)c1ccc(Nc2cc(Cl)c(Cl)c(Cl)c2)c(-c2cn(C)cn2)c1 [Compound 145, N-methyl-3-(1-methylimidazol-4-yl)-4-(3,4,5-trichloroanilino)benzenesulfonamide]	≤ 0.1
CNS(=O)(=O)c1ccc(Nc2cc(C(F)(F)F)cc(C(F)(F)F)c2)c(-c2cn(C)cn2)c1 [Compound 146, 4-[3,5-Bis(trifluoromethyl)anilino]-N-methyl-3-(1-methylimidazol-4-yl)benzenesulfonamide]	0.1 to 1
CNS(=O)(=O)c1ccc(N[C@H]2CC[C@@H](C(F)(F)F)CC2)c(-c2cn(C)cn2)c1 [Compound 150, N-methyl-3-(1-methyl-1H-imidazol-4-yl)-4-(((1s,4s)-4-(trifluoromethyl)cyclohexyl)amino) benzenesulfonamide]	≤ 0.1
CNS(=O)(=O)c1ccc(Nc2cccc(C(F)(F)F)c2)c(-c2ccnc(N)c2)c1 [Compound 152, 3-(2-Aminopyridin-4-yl)-N-methyl-4-((3-(trifluoromethyl)phenyl)amino) benzenesulfonamide]	1 to 3

More lines, now with the values ahead:

IC50 [µM]	SMILES
1 to 3	CNS(=O)(=O)c1ccc(Nc2ccc(Oc3ccccc3)cc2)c(-c2nnn(C)n2)c1 [Compound 130, N-methyl-3-(2-methyltetrazol-5-yl)-4-(4-phenoxyanilino) benzenesulfonamide]
0.1 to 1	CNS(=O)(=O)c1ccc(Nc2ccc(C(F)(F)F)cc2)c(-c2nnc(N)o2)c1 [Compound 133, 3-(5-amino-1,3,4-oxadiazol-2-yl)-N-methyl-4-[4-(trifluoromethyl)anilino]benzene-sulfonamide]
0.1 to 1	CNS(=O)(=O)c1ccc(Nc2cccc(Oc3ccccc3)c2)c(-c2nnn(C)n2)c1 [Compound 134, N-methyl-3-(2-methyltetrazol-5-yl)-4-(3-phenoxyanilino)benzenesulfonamide]
≤ 0.1	CNS(=O)(=O)c1ccc(Nc2cccc(C(F)(F)F)c2)c(-c2nnn(Cc3ccccc3F)n2)c1 [Compound 136, 3-[2-[(2-Fluorophenyl)methyl]tetrazol-5-yl]-N-methyl-4-[3-(trifluoromethyl)anilino]benzene-sulfonamide]
≤ 0.1	CNS(=O)(=O)c1ccc(Nc2ccc(Cl)cc2)c(-c2cn(C)cn2)c1 [Compound 139, 4-(4-chloroanilino)-N-methyl-3-(1-methylimidazol-4-yl)benzenesulfonamide]
≤ 0.1	CNS(=O)(=O)c1ccc(Nc2cccc(Cl)c2)c(-c2cn(C)cn2)c1 [Compound 143, 4-(3-Chloroanilino)-N-methyl-3-(1-methylimidazol-4-yl)benzenesulfonamide]
≤ 0.1	CNS(=O)(=O)c1ccc(Nc2ccc(Cl)c(C(F)(F)F)c2)c(-c2cn(C)cn2)c1 [Compound 147, 4-[4-Chloro-3-(trifluoromethyl)anilino]-N-methyl-3-(1-methylimidazol-4-yl)benzenesulfonamide]
≤ 0.1	CNS(=O)(=O)c1ccc(Nc2ccc(C(F)(F)F)c(Cl)c2)c(-c2cn(C)cn2)c1 [Compound 148, 4-[3-Chloro-4-(trifluoromethyl)anilino]-N-methyl-3-(1-methylimidazol-4-yl)benzenesulfonamide]
≤ 0.1	CNS(=O)(=O)c1ccc(Nc2c(F)cccc2F)c(-c2cn(C)cn2)c1 [Compound 149, 4-((2,6-Difluorophenyl)amino)-N-methyl-3-(1-methyl-1H-imidazol-4-yl)benzenesulfonamide]
≤ 0.1	CNS(=O)(=O)c1ccc(N[C@H]2CC[C@H](C(F)(F)F)CC2)c(-c2cn(C)cn2)c1 [Compound 151, N-methyl-3-(1-methyl-1H-imidazol-4-yl)-4-(((1r,4r)-4-(trifluoromethyl)cyclohexyl)amino) benzenesulfonamide]
